Each structure is given as a SMILES string.

Turning to `CCc1ccc(/C=C2\CN(S(=O)(=O)c3ccc(C)cc3)C/C(=C\c3ccc(CC)cc3)C2=O)cc1` [3b, 3,5-Bis(4-etbylbenzylidene)-1-tosylpiperidin-4-one], the melting point (commonly the temperature of the solid-liquid transition) is 165 °C.

The compound `CCCc1ccc(/C=C2\CN(S(=O)(=O)c3ccc(C)cc3)C/C(=C\c3ccc(CCC)cc3)C2=O)cc1` [3c, 3,5-Bis(4-propylbenzylidene)-1-tosylpiperidin-4-one] had a melting point of 157 °C.

`Cc1ccc(/C=C2\CN(S(=O)(=O)c3ccc(C)cc3)C/C(=C\c3ccc(C)cc3)C2=O)cc1` [3d, 3,5-Bis(4-methylbenzylidene)-1-tosylpiperidin-4-one] showed a melting point of 187 °C.

The compound `Cc1ccc(S(=O)(=O)N2C/C(=C\c3ccc(Cl)cc3)C(=O)/C(=C/c3ccc(Cl)cc3)C2)cc1` [3e, 3,5-Bis(4-chlorobenzylidene)-1-tosylpiperidin-4-one] yielded a melting point of 209 °C.

In the case of `COc1ccc(/C=C2\CN(S(=O)(=O)c3ccc(C)cc3)C/C(=C\c3ccc(OC)cc3)C2=O)cc1` [3f, 3,5-Bis(4-methoxybenzylidene)-1-tosylpiperidin-4-one], the melting point came to 183 °C.

Compound `Cc1ccc(S(=O)(=O)N2C/C(=C\c3ccc(C(C)(C)C)cc3)C(=O)/C(=C/c3ccc(C(C)(C)C)cc3)C2)cc1` [3g, 3,5-Bis(4-tert-butylbenzylidene)-1-tosylpiperidin-4-one] displayed a melting point of 220 °C.

Compound `CCCCc1ccc(/C=C2\CN(S(=O)(=O)c3ccc(C)cc3)C/C(=C\c3ccc(CCCC)cc3)C2=O)cc1` [3h, 3,5-Bis(4-butylbenzylidene)-1-tosylpiperidin-4-one] returned a melting point of 148 °C.

`Cc1ccc(S(=O)(=O)N2C/C(=C\c3ccc(C(C)C)cc3)C(=O)/C(=C/c3ccc(C(C)C)cc3)C2)cc1` [3i, 3,5-Bis(4-isopropylbenzylidene)-1-tosylpiperidin-4-one] yielded a melting point of 177 °C.

Compound `Cc1ccc(/C=C2\CN(S(=O)(=O)c3ccccc3)C/C(=C\c3ccc(C)cc3)C2=O)cc1` [4a, 3,5-Bis(4-methylbenzylidene)-1-(phenylsulfonyl)piperidin-4-one] yielded a melting point of 211 °C.

`CCc1ccc(/C=C2\CN(S(=O)(=O)c3ccccc3)C/C(=C\c3ccc(CC)cc3)C2=O)cc1` [4b, 3,5-Bis(4-ethylbenzylidene)-1-(phenylsulfonyl)piperidin-4-one] returned a melting point of 165 °C.

Consider `CC(C)c1ccc(/C=C2\CN(S(=O)(=O)c3ccccc3)C/C(=C\c3ccc(C(C)C)cc3)C2=O)cc1` [4c, 3,5-Bis(4-isopropylbenzylidene)-1-(phenylsulfonyl)piperidin-4-one], for which the melting point was found to be 170 °C.

Compound `CCCc1ccc(/C=C2\CN(S(=O)(=O)c3ccccc3)C/C(=C\c3ccc(CCC)cc3)C2=O)cc1` [4d, 1-(Phenylsulfonyl)-3,5-bis(4-propylbenzylidene)piperidin-4-one] came in with a melting point of 153 °C.

As to `CC(C)(C)c1ccc(/C=C2\CN(S(=O)(=O)c3ccccc3)C/C(=C\c3ccc(C(C)(C)C)cc3)C2=O)cc1` [4f, 3,5-Bis(4-tert-butylbenzylidene)-1-(phenylsulfonyl)piperidin-4-one], the melting point was determined as 194 °C.

As to `CCCCc1ccc(/C=C2\CN(S(=O)(=O)c3ccccc3)C/C(=C\c3ccc(CCCC)cc3)C2=O)cc1` [4g, 3,5-Bis(4-butylbenzylidene)-1-(phenylsulfonyl)piperidin-4-one], the melting point was 134 °C.

As for `COc1ccc(/C=C2\CN(S(=O)(=O)c3ccccc3)C/C(=C\c3ccc(OC)cc3)C2=O)cc1` [4h, 3,5-Bis(4-methoxybenzylidene)-1-(phenylsulfonyl)piperidin-4-one], the melting point was 217 °C.

As to `O=C1/C(=C/c2ccc(F)cc2)CN(S(=O)(=O)c2ccccc2)C/C1=C\c1ccc(F)cc1` [4j, 3,5-Bis(4-fluorobenzylidene)-1-(phenylsulfonyl)piperidin-4-one], the melting point worked out at 181 °C.

As for `Cc1ccc(/C=C2\CN(Cc3ccccc3)C/C(=C\c3ccc(C)cc3)C2=O)cc1` [5a, 1-Benzyl-3,5-bis(4-methylbenzylidene)piperidin-4-one], the melting point came out at 170 °C.

`CCc1ccc(/C=C2\CN(Cc3ccccc3)C/C(=C\c3ccc(CC)cc3)C2=O)cc1` [5c, 1-Benzyl-3,5-bis-(4-ethyl-benzylidene)-piperidin-4-one] yielded a melting point of 119 °C.

In the case of `CC(C)c1ccc(/C=C2\CN(Cc3ccccc3)C/C(=C\c3ccc(C(C)C)cc3)C2=O)cc1` [5e, 1-Benzyl-3,5-bis(4-isopropylbenzylidene)piperidin-4-one], the melting point turned out to be 157 °C.

The compound `CCCCc1ccc(/C=C2\CN(Cc3ccccc3)C/C(=C\c3ccc(CCCC)cc3)C2=O)cc1` [5f, 1-Benzyl-3,5-bis(4-butylbenzylidene)piperidin-4-one] came in with a melting point of 104 °C.

`CC(C)(C)c1ccc(/C=C2\CN(Cc3ccccc3)C/C(=C\c3ccc(C(C)(C)C)cc3)C2=O)cc1` [5g, 1-Benzyl-3,5-bis(4-tert-butylbenzylidene)piperidin-4-one] showed a melting point of 167 °C.

`O=C1/C(=C/c2ccc(F)cc2)CN(Cc2ccccc2)C/C1=C\c1ccc(F)cc1` [5j, 1-Benzyl-3,5-bis(4-fluorobenzylidene)piperidin-4-one] displayed a melting point of 159 °C.

With `CCN1C/C(=C\c2ccc(Br)cc2)C(=O)/C(=C/c2ccc(Br)cc2)C1` [6a, 3,5-Bis-(4-bromo-benzylidene)-1-ethyl-piperidin-4-one], the melting point was 178 °C.

Compound `CCN1C/C(=C\c2ccc(F)cc2)C(=O)/C(=C/c2ccc(F)cc2)C1` [6c, 1-Ethyl-3,5-bis(4-fluorobenzylidene)piperidin-4-one] came in with a melting point of 114 °C.

`CCc1ccc(/C=C2\CN(CC)C/C(=C\c3ccc(CC)cc3)C2=O)cc1` [6e, 1-Ethyl-3,5-bis(4-ethylbenzylidene)piperidin-4-one] displayed a melting point of 178 °C.

The compound `CCN1C/C(=C\c2ccc(C(C)(C)C)cc2)C(=O)/C(=C/c2ccc(C(C)(C)C)cc2)C1` [6i, 3,5-Bis(4-tert-butylbenzylidene)-1-ethylpiperidin-4-one] came in with a melting point of 111 °C.

`C#CCN1CC(=Cc2ccc(C(C)C)cc2)C(=O)C(=Cc2ccc(C(C)C)cc2)C1` [10c, 3,5-Bis(4-isopropylbenzylidene)-1-(prop-2-ynyl)piperidin-4-one] registered a melting point of 106 °C.

With `C#CCN1CC(=Cc2ccc(C(C)(C)C)cc2)C(=O)C(=Cc2ccc(C(C)(C)C)cc2)C1` [10d, 3,5-Bis(4-tert-butylbenzylidene)-1-(prop-2-ynyl)piperidin-4-one], the melting point amounted to 182 °C.

`C#CCN1CC(=Cc2ccc(CCC)cc2)C(=O)C(=Cc2ccc(CCC)cc2)C1` [10e, 1-(Prop-2-ynyl)-3,5-bis(4-propylbenzylidene)piperidin-4-one] displayed a melting point of 96 °C.

`CCCn1cc(CN2CC(=Cc3ccc(C)cc3)C(=O)C(=Cc3ccc(C)cc3)C2)nn1` [11a, 3,5-Bis(4-methylbenzylidene)-1-((1-propyl-1H-1,2,3-triazol-4-yl)methyl)piperidin-4-one] displayed a melting point of 165 °C.

`CCCCCn1cc(CN2CC(=Cc3ccc(C)cc3)C(=O)C(=Cc3ccc(C)cc3)C2)nn1` [11c, 3,5-Bis(4-methylbenzylidene)-1-((1-pentyl-1H-1,2,3-triazol-4-yl)methyl)piperidin-4-one] showed a melting point of 169 °C.

The compound `CCCn1cc(CN2CC(=Cc3ccc(CC)cc3)C(=O)C(=Cc3ccc(CC)cc3)C2)nn1` [12a, 3,5-Bis(4-ethylbenzylidene)-1-((1-propyl-1H-1,2,3-triazol-4-yl)methyl)piperidin-4-one] came in with a melting point of 149 °C.

On to `CCCCn1cc(CN2CC(=Cc3ccc(CC)cc3)C(=O)C(=Cc3ccc(CC)cc3)C2)nn1` [12b, 1-((1-Butyl-1H-1,2,3-triazol-4-yl)methyl)-3,5-bis(4-ethylbenzylidene)piperidin-4-one], for which the melting point was determined as 150 °C.

`CCCCCn1cc(CN2CC(=Cc3ccc(CC)cc3)C(=O)C(=Cc3ccc(CC)cc3)C2)nn1` [12c, 3,5-Bis(4-ethylbenzylidene)-1-((1-pentyl-1H-1,2,3-triazol-4-yl)methyl)piperidin-4-one]: the melting point came out at 156 °C.

On to `CCCn1cc(CN2CC(=Cc3ccc(C(C)C)cc3)C(=O)C(=Cc3ccc(C(C)C)cc3)C2)nn1` [13a, 3,5-Bis(4-isopropylbenzylidene)-1-((1-propyl-1H-1,2,3-triazol-4-yl)methyl)piperidin-4-one], for which the melting point came out at 144 °C.

`CCCCn1cc(CN2CC(=Cc3ccc(C(C)C)cc3)C(=O)C(=Cc3ccc(C(C)C)cc3)C2)nn1` [13b, 1-((1-Butyl-1H-1,2,3-triazol-4-yl)methyl)-3,5-bis(4-isopropylbenzylidene)piperidin-4-one] registered a melting point of 145 °C.

In turn, `CCCCCn1cc(CN2CC(=Cc3ccc(C(C)C)cc3)C(=O)C(=Cc3ccc(C(C)C)cc3)C2)nn1` [13c, 3,5-Bis(4-isopropylbenzylidene)-1-((1-pentyl-1H-1,2,3-triazol-4-yl)methyl)piperidin-4-one] displayed a melting point of 143 °C.

In turn, `CCCn1cc(CN2CC(=Cc3ccc(C(C)(C)C)cc3)C(=O)C(=Cc3ccc(C(C)(C)C)cc3)C2)nn1` [14a, 3,5-Bis(4-tert-butylbenzylidene)-1-((1-propyl-1H-1,2,3-triazol-4-yl)methyl)piperidin-4-one] returned a melting point of 182 °C.

`CCCCn1cc(CN2CC(=Cc3ccc(C(C)(C)C)cc3)C(=O)C(=Cc3ccc(C(C)(C)C)cc3)C2)nn1` [14b, 1-[(1-Butyl-1H-1,2,3-triazol-4-yl)methyl]-3,5-bis(4-tert-butylbenzylidene)piperidin-4-one] showed a melting point of 145 °C.

The compound `CCCCCn1cc(CN2CC(=Cc3ccc(C(C)(C)C)cc3)C(=O)C(=Cc3ccc(C(C)(C)C)cc3)C2)nn1` [14c, 3,5-Bis(4-tert-butylbenzylidene)-1-[(1-pentyl-1H-1,2,3-triazol-4-yl)methyl]piperidin-4-one] displayed a melting point of 146 °C.

`CCCc1ccc(C=C2CN(Cc3cn(CCC)nn3)CC(=Cc3ccc(CCC)cc3)C2=O)cc1` [15a, 1-[(1-Propyl-1H-1,2,3-triazol-4-yl)methyl]-3,5-bis(4-propylbenzylidene)piperidin-4-one]: the melting point amounted to 133 °C.

These data come from patent publication US9884825B2, “Curcumin analogs and methods of making and using thereof” (Georgia State University Research Foundation, Inc., priority 2012, dated 2018).
